The test system of data set [1] is β2ARs in permeabilized A431 cells. As to the kind of experiment: Desensitization of β2ARs in permeabilized A431 cells. The data set is classed as cell-based, human. How it is done:
Permeabilization of cells was accomplished as follows. Human epidermoid carcinoma A431 cells were grown to about 95% confluence in Dulbecco's modified Eagle's medium supplemented with 10% fetal calf serum. Cells were harvested with collagenase, washed three times with calcium-free phosphate-buffered saline (PBS), then washed twice in 150 mM potassium glutamate/10 mM Hepes/5 mM EGTA/7 mM MgCl2, pH 7.1 (KG buffer), and finally resuspended in KG buffer supplemented with 5 mM glucose and 2 mM ATP (KG-A buffer) at a density of 4×10^7 cells per ml.
At 4×10^7 cells per ml, about 0.015% digitonin was necessary to achieve permeabilization of >95% cells as assessed by staining with trypan blue. In all experiments, digitonin was added stepwise until >95% of the cells were trypan blue positive.

Data set [2] has as its target protein kinase C and cyclic nucleotide-dependent protein kinases. Particulars: cited from earlier work.
Data set [3] has as its target T1, βAR kinase (Bos taurus, UniProt P21146).
T1 construct: βAR kinase was purified from bovine cerebral cortex; from tissue; host or cells: bovine cerebral cortex
T1 sequence (P21146 1-689): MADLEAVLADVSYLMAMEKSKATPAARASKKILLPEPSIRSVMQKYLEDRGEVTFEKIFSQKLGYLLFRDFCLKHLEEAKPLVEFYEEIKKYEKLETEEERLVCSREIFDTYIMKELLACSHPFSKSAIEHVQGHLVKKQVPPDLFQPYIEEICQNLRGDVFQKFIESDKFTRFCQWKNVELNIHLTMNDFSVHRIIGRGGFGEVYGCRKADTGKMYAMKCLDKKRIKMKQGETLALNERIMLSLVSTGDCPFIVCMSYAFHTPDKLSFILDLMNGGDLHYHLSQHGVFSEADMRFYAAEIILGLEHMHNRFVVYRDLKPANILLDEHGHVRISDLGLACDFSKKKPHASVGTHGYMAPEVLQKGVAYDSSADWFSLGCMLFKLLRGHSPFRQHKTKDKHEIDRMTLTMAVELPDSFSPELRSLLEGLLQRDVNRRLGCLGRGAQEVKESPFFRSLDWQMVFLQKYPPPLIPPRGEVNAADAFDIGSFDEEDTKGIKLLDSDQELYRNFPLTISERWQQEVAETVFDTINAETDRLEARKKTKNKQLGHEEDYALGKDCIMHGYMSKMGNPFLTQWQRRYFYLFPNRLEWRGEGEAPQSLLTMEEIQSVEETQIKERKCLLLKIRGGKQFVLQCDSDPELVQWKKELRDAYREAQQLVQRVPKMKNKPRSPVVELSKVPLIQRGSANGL
Put plainly: Phosphorylation of purified reconstituted β2ARs by purified βAR kinase (Example II). The data set is classed as biochemical, bovine. How it is done: FIG. 7. […] (Inset) Relevant section of a representative autoradiogram. Data are means±SEM of three independent experiments. […] Desensitization was measured as the percent loss of stimulation by 10 μM (−)-isoproterenol of adenylyl cyclase activity in membranes. […] Data are means±SEM of four independent experiments.
Purified β2ARs were inserted into phosphatidylcholine vesicles by chromatography on Extracti-gel, followed by polyethylene glycol treatment and centrifugation at 280,000×g for 90 min (Cerione et al (1984) Biochemistry 23:4519-4525). Phosphorylation of the reconstituted receptors by purified βAR kinase was done in the presence of 50 μM (−)-isoproterenol as described (Benovic et al (1987) J. Biol. Chem. 262:9026-9032). Subsequently, the samples were subjected to sodium dodecyl sulfate polyacrylamide gel electrophoresis on 10% gels (Laemmli (1970) Nature 227:680-685). The phosphorylated β2ARs were visualized by autoradiography, and the corresponding bands were cut out and their content of ^32P quantified.

A further data set addresses protein kinase A (Homo sapiens, UniProt P17612). As to the kind of experiment: Peptides as substrates for protein kinase A. The data set is classed as biochemical.
For data set [4], the target named is T1, βAR kinase. Put plainly: Phosphorylation of rhodopsin (urea-treated rod outer segments) by βAR kinase. Type of data set: biochemical, bovine. To be noted: read-out: IC50 (concentration of compound which gave 50% inhibition of βAR kinase); rhodopsin as substrate. The procedure: (§1) βAR kinase was purified from bovine cerebral cortex by modification of procedure of Benovic et al (J. Biol. Chem. (1987) 262:9026-9032). Briefly, 250 g of bovine cerebral cortex were homogenized with a Brinkmann tissue disrupter and centrifuged (40,000×g, 30 min). The supernatant was then precipitated with 13-26% ammonium sulfate. This material was initially chromatographed on a Ultrogel AcA34 column equilibrated with 5 mM Tris-HCl, pH 7.5, 2 mM EDTA, 10 μg/ml leupeptin, 5 μg/ml pepstatin, 10 μg/ml benzamidine, 0.2 mM phenylmethylsulfonyl fluoride (buffer A). The peak activity was diluted with an equal volume of buffer A containing 0.04% Triton X-100 before being applied to a DEAE-Sephacel column. Elution was accomplished with a 0-80 mM NaCl gradient in buffer A containing 0.02% Triton X-100. The peak activity was then applied to a CM-Fractogel column and eluted with a 0-100 mM NaCl gradient in buffer A containing 0.02% Triton X-100. The purified kinase is stable at 4° C. for several months. For these studies the βAR kinase preparations were >75% pure.
(§2) Rod outer segments were prepared from bovine retinas by stepwise sucrose gradient centrifugation (Wilden et al Biochemistry (1982) 21:3014-3022). Rhodopsin kinase-free rod outer segments were prepared by treatment with 5 M urea (Shichi et al J. Biol. Chem. (1978) 253:7040-7046) and consisted of ˜95% rhodopsin, as assessed by Coomassie Blue staining of sodium dodecyl sulfate-polyacrylamide gels.
(§3) Urea-treated rod outer segments were phosphorylated with βAR kinase as follows. Urea-treated rod outer segments (˜4 μg of rhodopsin) were incubated with βAR kinase (˜0.1 μg) for 10-15 min at 30° C. in the presence of 40 mM Tris-HCl, pH 7.4, 10 mM NaCl, 5 mM MgCl2, 1.5 mM EDTA, and 65 μM ATP (˜1 cpm/fmol) (total reaction volume was 40 μl). Reactions were stopped by the addition of 40 μl of sodium dodecyl sulfate sample buffer (see below) followed by sodium dodecyl sulfate-polyacrylamide gel electrophoresis. After autoradiography, the phosphorylated rhodopsin bands were excised and counted.
Sodium dodecyl sulfate-polyacrylamide gel electrophoresis was performed by the method of Laemmli (Nature (1970) 227:680-685) using 10% homogeneous polyacrylamide slab gels. Sample buffer contained 8% sodium dodecyl sulfate, 10% glycerol, 5% 3-mercaptoethanol, 25 mM Tris-HCl, pH 6.5, and 0.003% bromphenol blue. After electrophoresis, gels were dried with a Bio-Rad gel dryer prior to autoradiography.

In data set [5] the target is T1, βAR kinase. As to the kind of experiment: Reversal of heparin inhibition of βAR kinase by polycations. To be noted: read-out: EC50 for reversal of heparin inhibition; in the presence of 1.1 μM heparin. The data set is classed as biochemical, bovine. The procedure: as §3
Substrate in data set [6]: CC[C@H](C)[C@H](NC(=O)[C@H](Cc1ccc(O)cc1)NC(=O)[C@H](CC(N)=O)NC(=O)[C@H](CC(C)C)NC(=O)[C@@H]1CCCN1C(=O)[C@@H](NC(=O)[C@H](CCCNC(=N)N)NC(=O)[C@H](CC(C)C)NC(=O)[C@H](CCCCN)NC(=O)[C@H](CCCCN)NC(=O)[C@H](Cc1c[nH]cn1)NC(=O)[C@H](CCC(N)=O)NC(=O)[C@@H](NC(=O)[C@@H](NC(=O)[C@@H](N)C(C)C)[C@@H](C)O)C(C)C)[C@@H](C)O)C(=O)O
As to the kind of experiment: Phosphorylation of rhodopsin (urea-treated rod outer segments) by βAR kinase. The data set is classed as biochemical, bovine. To be noted: other: rhodopsin as substrate, absence of heparin; 30.0 °C. How it is done: as §1, with “The peak activity was then applied to a CM-Fractogel column and eluted with a 0-100 mM NaCl gradient in buffer A containing 0.02% Triton X-100. The purified kinase is stable at 4° C. for several months. For these studies the βAR kinase preparations were >75% pure.” left out
as §2
Urea-treated rod outer segments were phosphorylated with βAR kinase as follows. […] After autoradiography, the phosphorylated rhodopsin bands were excised and counted. […]

No end group written: not given here.

Data on 4 molecules can be found in patent US6605424B1, “Method of detecting inhibitors of agonist-specific desensitization” (Duke University, priority 1989, dated 2003).

Turning to `CC1CNCCN1S(=O)(=O)c1cccc2cnccc12` (stereo not shown) [Peptide H7, 1-5(isoquinolinesulfonyl)-2-methylpiperazine], the “Inhibition of Desensitization, %” value in data set [1] (100 μM) turned out to be 22 ± 14%. For the same molecule, the inhibition (in general, how much of the control response was suppressed) at 1 µM worked out at 0% in data set [1] (Homo sapiens, A-431, 1 μM) and 3 ± 4% on βAR kinase [3] (1 μM). Moreover, the inhibition at 10 µM in data set [1] (Homo sapiens, A-431, 10 μM) was found to be 7 ± 5%; on βAR kinase [3] (10 μM), 2 ± 7%. The inhibition at 100 µM in data set [1] (Homo sapiens, A-431, 100 μM) is roughly 20%; on βAR kinase [3] (100 μM), roughly 20%. For the same molecule, the Ki (as a rule, the equilibrium dissociation constant of an inhibitor or competing ligand from its target) in data set [2] was roughly 5 µM. The “Inhibition of βAR kinase, %” value at βAR kinase [3] (100 μM) is 19 ± 6%.
In the case of QELLCLRRSSSKAYGNGYS [CT-1 (337-355)], at protein kinase A, the “substrate for protein kinase A” value is “serve as substrates for protein kinase A”.
In the case of polylysine, the IC50 on βAR kinase [4] was roughly 69 µM. On βAR kinase [5], the EC50 (in general, the midpoint of the concentration-response curve) is roughly 2.8 µM.

B1: βAR kinase (Bos taurus) (protein)
chain: T1 sequence (P21146 1-689)
notes: βAR kinase was purified from bovine cerebral cortex; from tissue; host or cells: bovine cerebral cortex
As to B1, the Km (usually the substrate concentration at which the rate is half of its maximum) in data set [6] is 5.3 µM.
